Assays:
[1] = test system: Enterococcus faecalis; test: Adjuvant broth microdilution (antibiotic MIC with SP-BIM at 50 μg/mL); format: cell-based; settings: antibiotic alone
[2] = test system: Escherichia coli O157:H7; test: Rescue concentrations of SP-BIM that reactivate antibiotic; format: cell-based
[3] = test system: clinical strains of MRSA; test: Kirby Bauer disc diffusion susceptibility profile; format: cell-based, Staphylococcus aureus; settings: for Zone of clearance: 35° C., 24 hours, average n=3; for Interpretive standard (resistant/susceptible): zones vs EUCAST breakpoints (Table 30)
[4] = test system: Enterococcus faecium; test: Checkerboard synergy (FICI) of antibiotics with SP-BIM; format: cell-based; settings: Enterococcus faecium; for MIC antibiotic only: antibiotic alone
[5] = test system: Streptococcus pneumoniae; test: Adjuvant broth microdilution (antibiotic MIC with SP-BIM at 50 μg/mL); format: cell-based; settings: Streptococcus pneumonia; antibiotic alone; Table 5
[6] = test system: Bacillus cereus; test: Checkerboard synergy (FICI) of antibiotics with SP-BIM; format: cell-based; settings: for MIC antibiotic only: antibiotic alone
[7] = test system: Candida albicans; test: as above; set-up: MIC SP-BIM 13 only / MIC in combination: Antibiotic / MIC antibiotic only: unit not given beside the values
[8] = test system: Escherichia coli; test: microbe, parasite or virus in culture; format: cell-based; settings: antibiotic alone, Table 6
[9] = test system: MRSA; test: Adjuvant broth microdilution (antibiotic MIC with SP-BIM at 50 μg/mL); format: cell-based, Staphylococcus aureus; settings: antibiotic alone, Table 4
[10] = test system: Staphylococcus aureus; test: Checkerboard synergy (FICI) of antibiotics with SP-BIM; format: cell-based; settings: Staphylococcus aureus; for MIC antibiotic only: antibiotic alone
[11] = test system: Klebsiella pneumoniae; test: Adjuvant broth microdilution (antibiotic MIC with SP-BIM at 50 μg/mL); format: cell-based; settings: Klebsiella pneumoniae; antibiotic alone; Table 7
[12] = test system: Escherichia coli; test: Checkerboard synergy (FICI) of antibiotics with SP-BIM; set-up: MIC SP-BIM 13 only / MIC in combination: Antibiotic: unit not given beside the values; settings: for MIC antibiotic only: antibiotic alone
[13] = test system: Streptococcus pneumoniae; test: as above; format: cell-based; settings: for MIC antibiotic only: antibiotic alone
[14] = test system: Klebsiella pneumoniae; test: as above; format: cell-based; settings: for MIC antibiotic only: antibiotic alone
[15] = SP-BIM 13 concentration in combination with the labelled antibiotic
[16] = SP-BIM 13 in combination with the labelled antibiotic
[17] = antibiotic in combination with SP-BIM 13
[18] = MIC of the antibiotic in combination with SP-BIM 13
[19] = SP-BIM 9 concentration in combination with the labelled antibiotic
[20] = SP-BIM 9 in combination with the labelled antibiotic
[21] = antibiotic in combination with SP-BIM 9
[22] = Streptococcus pneumonia (title: Streptococcus pyogenes), antibiotic + SP-BIM 9
[23] = Streptococcus pneumoniae, antibiotic + SP-BIM 13

SMILES: NC[C@H]1O[C@H](O[C@H]2[C@H](O)[C@@H](O[C@H]3O[C@H](CO)[C@@H](O)[C@H](N)[C@H]3O)[C@H](N)C[C@@H]2N)[C@H](O)[C@@H](O)[C@@H]1O [Kanamycin, kanamycin]
- MIC of antibiotic, No Compound [1]: 250 µg/mL
- MIC of Kanamycin in combination with 32 μg/mL SP-BIM 28 ([2]; E. coli O157:H7, with 32 μg/mL SP-BIM 28): 1 µg/mL
- MIC ([2]; Escherichia coli, read-out: MIC of Kanamycin): 8 µg/mL
- Zone of clearance ([3]; MRSA strain 1594): 11.5 mm
- Interpretive standard (resistant/susceptible) ([3]; MRSA strain 1594): R
- Zone of clearance ([3]; MRSA strain 1621): 19.5 mm
- Interpretive standard (resistant/susceptible) ([3]; MRSA strain 1621): S
- Zone of clearance ([3]; MRSA strain 5455): 19.5 mm
- Interpretive standard (resistant/susceptible) ([3]; MRSA strain 5455): S
- Zone of clearance ([3]; MRSA strain 5872): 0.0 mm
- Interpretive standard (resistant/susceptible) ([3]; MRSA strain 5872): R
- Zone of clearance ([3]; MRSA strain 7153): 19.5 mm
- Interpretive standard (resistant/susceptible) ([3]; MRSA strain 7153): S
- Zone of clearance ([3]; MRSA strain 7172): 20.5 mm
- Interpretive standard (resistant/susceptible) ([3]; MRSA strain 7172): S
- Zone of clearance ([3]; MRSA strain 7698): 8.5 mm
- Interpretive standard (resistant/susceptible) ([3]; MRSA strain 7698): R
- Zone of clearance ([3]; MRSA strain 10132): 8.0 mm
- Interpretive standard (resistant/susceptible) ([3]; MRSA strain 10132): R

SMILES: CC1=C(C(=O)O)N2C(=O)[C@@H](NC(=O)[C@H](N)c3ccccc3)[C@H]2SC1 [Cephalexin, cefalexin]
- MIC in combination, SP-BIM 13 [4, 15]: 63 µg/mL
- FIC of SP-BIM 13 [4, 16]: 0.5
- Interpretation ([4]; antibiotic + SP-BIM 13): Synergy (Synergy: FICI≤0.5)
- Σ FIC ([4]; antibiotic + SP-BIM 13): 0.5
- MIC antibiotic only ([4]; SP-BIM 9 checkerboard): 250 µg/mL
- MIC antibiotic only ([4]; SP-BIM 13 checkerboard): 250 µg/mL
- MIC in combination, Antibiotic [4, 17]: 8 µg/mL
- FIC of antibiotic ([4]; in combination with SP-BIM 13): 0.0
- MIC of antibiotic, No Compound [5]: 250 µg/mL
- MIC in combination, SP-BIM 13 [6, 15]: 32 µg/mL
- FIC of SP-BIM 13 [6, 16]: 0.1
- Interpretation ([6]; antibiotic + SP-BIM 13): Synergy (Synergy: FICI≤0.5)
- Σ FIC ([6]; antibiotic + SP-BIM 13): <0.1
- MIC antibiotic only ([6]; SP-BIM 9 checkerboard): >250 µg/mL
- MIC antibiotic only ([6]; SP-BIM 13 checkerboard): 250 µg/mL
- MIC in combination, Antibiotic [6, 17]: 4 µg/mL
- FIC of antibiotic ([6]; in combination with SP-BIM 13): 0.02
- MIC in combination: Antibiotic [7, 18]: 63
- FIC of SP-BIM 13 [7, 16]: 0.5
- Interpretation ([7]; antibiotic + SP-BIM 13): Additive (Additive: FICI>0.5-1.0)
- Σ FIC ([7]; antibiotic + SP-BIM 13): <0.8
- MIC antibiotic only ([7]; antibiotic alone): >250
- FIC of antibiotic ([7]; combination with SP-BIM 13): 0.3
- MIC of antibiotic, No Compound [8]: >250 µg/mL
- MIC of antibiotic, No Compound [9]: 16 µg/mL
- MIC in combination, SP-BIM 9 [10, 19]: 16.0 µg/mL
- FIC of SP-BIM 9 [10, 20]: 0.06
- MIC in combination, SP-BIM 13 [10, 15]: 63 µg/mL
- FIC of SP-BIM 13 [10, 16]: 0.5
- Interpretation ([10]; antibiotic + SP-BIM 9): Synergy (Synergy: FICI≤0.5)
- Σ FIC ([10]; antibiotic + SP-BIM 9): <0.19
- Interpretation ([10]; antibiotic + SP-BIM 13): Additive (Additive: FICI>0.5-1.0)
- Σ FIC ([10]; antibiotic + SP-BIM 13): 0.6
- MIC antibiotic only ([10]; SP-BIM 9 checkerboard): 4 µg/mL
- MIC antibiotic only ([10]; SP-BIM 13 checkerboard): 4 µg/mL
- MIC in combination, Antibiotic [10, 21]: 0.5 µg/mL
- MIC in combination, Antibiotic [10, 17]: 0.5 µg/mL
- FIC of antibiotic ([10]; in combination with SP-BIM 9): 0.13
- FIC of antibiotic ([10]; in combination with SP-BIM 13): 0.1
- MIC of antibiotic, No Compound [11]: 8 µg/mL
- MIC in combination: Antibiotic [12, 18]: 125
- MIC in combination, SP-BIM 9 [12, 19]: 125 µg/mL
- FIC of SP-BIM 9 [12, 20]: 0.5
- FIC of SP-BIM 13 [12, 16]: 0.3
- Interpretation ([12]; antibiotic + SP-BIM 9): Synergy (Synergy: FICI≤0.5)
- Σ FIC ([12]; antibiotic + SP-BIM 9): <0.6
- Interpretation ([12]; antibiotic + SP-BIM 13): Additive (Additive: FICI>0.5-1.0)
- Σ FIC ([12]; antibiotic + SP-BIM 13): <0.8
- MIC antibiotic only [12]: >250
- MIC antibiotic only ([12]; SP-BIM 9 checkerboard): 250 µg/mL
- MIC in combination, Antibiotic [12, 21]: 16 µg/mL
- FIC of antibiotic ([12]; combination with SP-BIM 13): 0.5
- FIC of antibiotic ([12]; in combination with SP-BIM 9): 0.064
- MIC in combination, SP-BIM 9 ([13]; Streptococcus pneumonia (title: Streptococcus pyogenes), SP-BIM 9 concentration in combination with the labelled antibiotic): 125 µg/mL
- FIC of SP-BIM 9 ([13]; Streptococcus pneumonia (title: Streptococcus pyogenes), SP-BIM 9 in combination with the labelled antibiotic): 0.50
- Interpretation [13, 22]: Additive (Additive: FICI>0.5-1.0)
- Σ FIC [13, 22]: <0.63
- MIC antibiotic only ([13]; Streptococcus pneumonia (title: Streptococcus pyogenes), SP-BIM 9 checkerboard): 250 µg/mL
- MIC in combination, Antibiotic ([13]; Streptococcus pneumonia (title: Streptococcus pyogenes), antibiotic in combination with SP-BIM 9): 32 µg/mL
- FIC of antibiotic ([13]; Streptococcus pneumonia (title: Streptococcus pyogenes), in combination with SP-BIM 9): 0.13
- MIC in combination, SP-BIM 13 ([13]; Streptococcus pneumoniae, SP-BIM 13 concentration in combination with the labelled antibiotic): 63 µg/mL
- FIC of SP-BIM 13 ([13]; Streptococcus pneumoniae, SP-BIM 13 in combination with the labelled antibiotic): 0.3
- Interpretation [13, 23]: Synergy (Synergy: FICI≤0.5)
- Σ FIC [13, 23]: <0.3
- MIC antibiotic only ([13]; Streptococcus pneumoniae, SP-BIM 13 checkerboard): 250 µg/mL
- MIC in combination, Antibiotic ([13]; Streptococcus pneumoniae, antibiotic in combination with SP-BIM 13): 2 µg/mL
- FIC of antibiotic ([13]; Streptococcus pneumoniae, in combination with SP-BIM 13): 0.0
- MIC in combination, SP-BIM 9 [14, 19]: 125 µg/mL
- FIC of SP-BIM 9 [14, 20]: 0.5
- MIC in combination, SP-BIM 13 [14, 15]: 63 µg/mL
- FIC of SP-BIM 13 [14, 16]: 0.3
- Interpretation ([14]; antibiotic + SP-BIM 9): Synergy (Synergy: FICI≤0.5)
- Σ FIC ([14]; antibiotic + SP-BIM 9): <0.5
- Interpretation ([14]; antibiotic + SP-BIM 13): Synergy (Synergy: FICI≤0.5)
- Σ FIC ([14]; antibiotic + SP-BIM 13): <0.5
- MIC antibiotic only ([14]; SP-BIM 9 checkerboard): 250 µg/mL
- MIC antibiotic only ([14]; SP-BIM 13 checkerboard): 250 µg/mL
- MIC in combination, Antibiotic [14, 21]: 4 µg/mL
- MIC in combination, Antibiotic [14, 17]: 63 µg/mL
- FIC of antibiotic ([14]; in combination with SP-BIM 9): 0.016
- FIC of antibiotic ([14]; in combination with SP-BIM 13): 0.3

Reference: patent US12285407B2, “Bis-indolylmethane derivatives and uses thereof” (The University of The West Indies, priority 2018, dated 2025)
